“Also recorded” adds a separate entry of the source.
Legend:
MCF-7 cells = assay: Cellular and nuclear morphology (light microscopy, Dapi staining); format: cell-based; conditions: MCF-7, 0.32 µM, 24 and 48 h
Procedure: To further examine the apoptosis inducing effect of 7b, the cellular as well as nuclear morphological changes for MCF-7 cells treated with 7b (0.32 µM) were studied following Dapi staining. The effect of 7b on cell morphology was initially analysed with light microscopy.
(§1) MCF7 cells were cultured on sterile cover slips (Harvard Apparatus, 22 mm2) in sterile six well plates at a density of 2×10^5 cells/well. Twenty-four hours after seeding, cells were exposed to GI50 concentration of compound 7b in fresh serum-free medium. At the end of the exposure, cells attached to cover slips were imaged with a light inverted microscope or washed with PBS and fixed with 3.7% paraformaldhyde for 10 min, permeabilized with 0.1% Triton X-100 in TBST containing 0.01% Tween 20 for 10 min, and blocked for 1 h with 5% goat serum in TBST. The fixed and permeabilized cells were incubated with cleaved caspase-3 rabbit mAb (Cell signaling technology, MA), at a dilution of 1:500, in blocking solution overnight at 4 °C, followed by secondary Cy3-goat anti-Rabbit antibody (Jackson Immuno Research, West Grove, PA) 1:1000 dilution, in the blocking solution for 1 hour, at room temperature. 4',6'-diamidino-2-phenylindole, dihydrochloride (DAPI) (Sigma– Aldrich, St. Louis, MO) was used as counter stain to stain the DNA. […]

[1] = tested on: cleaved caspase-3 in MCF-7 cells; assay: Cleaved caspase-3 immunostaining; format: cell-based; conditions: MCF-7, 0.32 µM, 24 h and 48 h
Procedure: Caspase-3 is a member of the cysteine-aspartic acid protease (caspase) family. Sequential activation of caspases is considered as one of the important keys in cellular apoptosis process. […] Cleaved caspase-3 further activates a cascade of caspases that induce cell death.
as §1

In the case of O=C(Nc1ccc(Cl)cc1)Nc1ccc(Oc2nncc3ccccc23)cc1 [Compound 7b, 1–(4-Chlorophenyl)-3–(4-(phthalazin-1-yloxy)phenyl)urea], the “cellular and nuclear morphology” value (MCF-7 cells) is reported as “deteriorated morphological changes including cell rounding, detachment and cellular fragmentation; also recorded: typical apoptotic characteristics; including condensation of chromatin (brightly stained cells), blubbing with the appearance of nuclear fragmentation” and the “cleaved caspase-3 protein expression” value [1] is reported as “concurrent increase in cleaved caspase-3 expression level; also recorded: time-dependent increase in cleaved caspase-3 protein expression; also recorded: increase the expression of cleaved caspase-3”.
